Laboratory results taken from patent US9156845B2, “4-(substituted amino)-7H-pyrrolo[2,3-d] pyrimidines as LRRK2 inhibitors” (Pfizer Inc., priority 2012, dated 2015).
Like-named read-outs stand apart in the source and are kept apart here.

Assays:
Experiment in all cases: ActivX kinase probe assay (human PBMC)
Assay type in all cases: binding
MAP2K6 = MAP2K6 (Homo sapiens (Human), UniProt P52564); settings: read-out: percent inhibition
SLK = SLK (Homo sapiens (Human), UniProt Q9H2G2); settings: read-out: percent inhibition
TAO2 = TAO2 (Homo sapiens (Human), UniProt Q9UL54); settings: read-out: percent inhibition
IKKe, TBK1 = tested on: IKKe, TBK1
NEK7 = NEK7 (Homo sapiens (Human), UniProt Q8TDX7); settings: read-out: percent inhibition
JNK1, JNK2, JNK3 = tested on: JNK1, JNK2, JNK3
smMLCK = smMLCK (Homo sapiens (Human), UniProt Q15746); settings: read-out: percent inhibition
KHS1 = KHS1 (Homo sapiens (Human), UniProt Q9Y4K4); settings: read-out: percent inhibition
SYK = SYK (Homo sapiens (Human), UniProt P43405); settings: read-out: percent inhibition
PKD2 = PKD2 (Homo sapiens (Human), UniProt Q9BZL6); settings: read-out: percent inhibition
ZAK = ZAK (Homo sapiens (Human), UniProt Q9NYL2); settings: read-out: percent inhibition
LRRK2 = LRRK2 (Homo sapiens (Human), UniProt Q5S007); settings: read-out: percent inhibition
LATS2 = LATS2 (Homo sapiens (Human), UniProt Q9NRM7); settings: read-out: percent inhibition
MAP2K3 = MAP2K3 (Homo sapiens (Human), UniProt P46734); settings: read-out: percent inhibition
CDC2 = CDC2 (Homo sapiens (Human), UniProt P06493); settings: read-out: percent inhibition
MAP3K5 = MAP3K5 (Homo sapiens (Human), UniProt Q99683); settings: read-out: percent inhibition
MARK3 = MARK3 (Homo sapiens (Human), UniProt P27448); settings: read-out: percent inhibition
IKKe = IKKe (Homo sapiens (Human), UniProt Q14164); settings: read-out: percent inhibition
MSK1 domain1 = MSK1 domain1 (Homo sapiens (Human), UniProt O75582); settings: read-out: percent inhibition
JAK1 domain2 = JAK1 domain2 (Homo sapiens (Human), UniProt P23458); settings: read-out: percent inhibition
FYN = FYN (Homo sapiens (Human), UniProt P06241); settings: read-out: percent inhibition
ZC2/TNIK = ZC2/TNIK (Homo sapiens (Human), UniProt Q9UKE5); settings: read-out: percent inhibition
LATS1 = LATS1 (Homo sapiens (Human), UniProt O95835); settings: read-out: percent inhibition
p70S6Kb = p70S6Kb (Homo sapiens (Human), UniProt Q9UBS0); settings: read-out: percent inhibition
p70S6K, p70S6Kb = tested on: p70S6K, p70S6Kb
IKKb = IKKb (Homo sapiens (Human), UniProt O14920); settings: read-out: percent inhibition
JAK3 domain2 = JAK3 domain2 (Homo sapiens (Human), UniProt P52333); settings: read-out: percent inhibition
FAK = FAK (Homo sapiens (Human), UniProt Q05397); settings: read-out: percent inhibition
eEF2K = eEF2K (Homo sapiens (Human), UniProt O00418); settings: read-out: percent inhibition
FGR = FGR (Homo sapiens (Human), UniProt P09769); settings: read-out: percent inhibition
MAST3 = MAST3 (Homo sapiens (Human), UniProt O60307); settings: read-out: percent inhibition
PKR = PKR (Homo sapiens (Human), UniProt P19525); settings: read-out: percent inhibition
TLK2 = TLK2 (Homo sapiens (Human), UniProt Q86UE8); settings: read-out: percent inhibition
DGKA = DGKA (Homo sapiens (Human), UniProt P23743); settings: read-out: percent inhibition
ABL, ARG = tested on: ABL, ARG

Chain of eEF2K (O00418 whole entry): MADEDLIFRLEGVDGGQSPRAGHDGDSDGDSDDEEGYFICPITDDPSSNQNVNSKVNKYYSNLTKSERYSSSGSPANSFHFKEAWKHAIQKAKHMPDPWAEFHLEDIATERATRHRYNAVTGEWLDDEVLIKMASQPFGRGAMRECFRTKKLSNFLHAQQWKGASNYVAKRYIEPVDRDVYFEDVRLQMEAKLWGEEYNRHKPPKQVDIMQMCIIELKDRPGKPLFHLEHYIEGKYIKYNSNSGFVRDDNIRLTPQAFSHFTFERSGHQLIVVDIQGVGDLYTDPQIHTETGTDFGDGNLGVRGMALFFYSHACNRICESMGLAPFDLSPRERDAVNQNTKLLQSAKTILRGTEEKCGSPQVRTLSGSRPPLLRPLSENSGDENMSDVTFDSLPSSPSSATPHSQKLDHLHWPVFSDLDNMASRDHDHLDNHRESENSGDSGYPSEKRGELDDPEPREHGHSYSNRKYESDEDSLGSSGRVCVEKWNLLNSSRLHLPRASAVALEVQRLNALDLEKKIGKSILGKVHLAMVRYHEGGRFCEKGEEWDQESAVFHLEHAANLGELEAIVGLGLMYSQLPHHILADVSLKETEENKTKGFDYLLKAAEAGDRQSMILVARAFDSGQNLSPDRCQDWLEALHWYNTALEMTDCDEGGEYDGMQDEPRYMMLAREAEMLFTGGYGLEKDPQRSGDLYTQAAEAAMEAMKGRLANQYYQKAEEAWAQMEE
Chain of PKR (P19525 whole entry): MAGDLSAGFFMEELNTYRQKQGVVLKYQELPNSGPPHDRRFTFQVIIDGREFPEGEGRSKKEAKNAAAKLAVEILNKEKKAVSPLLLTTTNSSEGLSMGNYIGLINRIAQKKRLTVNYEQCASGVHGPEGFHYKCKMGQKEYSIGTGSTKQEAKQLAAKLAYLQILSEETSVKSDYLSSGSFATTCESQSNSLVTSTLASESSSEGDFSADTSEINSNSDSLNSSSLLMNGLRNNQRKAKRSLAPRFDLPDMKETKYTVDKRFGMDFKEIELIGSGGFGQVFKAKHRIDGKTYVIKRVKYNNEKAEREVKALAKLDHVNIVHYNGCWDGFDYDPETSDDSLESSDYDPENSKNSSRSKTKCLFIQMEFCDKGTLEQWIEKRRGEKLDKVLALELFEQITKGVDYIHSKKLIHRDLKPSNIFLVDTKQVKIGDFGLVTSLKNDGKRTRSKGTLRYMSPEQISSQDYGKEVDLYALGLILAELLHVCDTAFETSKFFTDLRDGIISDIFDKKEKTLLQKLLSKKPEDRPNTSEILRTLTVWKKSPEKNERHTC
Chain of MAP2K3 (P46734 whole entry): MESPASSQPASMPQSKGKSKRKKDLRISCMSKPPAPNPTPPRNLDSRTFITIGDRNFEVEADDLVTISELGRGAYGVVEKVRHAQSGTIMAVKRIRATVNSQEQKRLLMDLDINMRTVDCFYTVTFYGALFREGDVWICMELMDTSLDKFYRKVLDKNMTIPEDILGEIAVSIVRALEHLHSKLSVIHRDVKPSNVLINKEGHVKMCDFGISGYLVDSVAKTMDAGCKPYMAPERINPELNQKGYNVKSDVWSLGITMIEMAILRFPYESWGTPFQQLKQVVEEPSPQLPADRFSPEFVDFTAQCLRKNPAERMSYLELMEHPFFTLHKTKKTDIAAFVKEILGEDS
Chain of TAO2 (Q9UL54 whole entry): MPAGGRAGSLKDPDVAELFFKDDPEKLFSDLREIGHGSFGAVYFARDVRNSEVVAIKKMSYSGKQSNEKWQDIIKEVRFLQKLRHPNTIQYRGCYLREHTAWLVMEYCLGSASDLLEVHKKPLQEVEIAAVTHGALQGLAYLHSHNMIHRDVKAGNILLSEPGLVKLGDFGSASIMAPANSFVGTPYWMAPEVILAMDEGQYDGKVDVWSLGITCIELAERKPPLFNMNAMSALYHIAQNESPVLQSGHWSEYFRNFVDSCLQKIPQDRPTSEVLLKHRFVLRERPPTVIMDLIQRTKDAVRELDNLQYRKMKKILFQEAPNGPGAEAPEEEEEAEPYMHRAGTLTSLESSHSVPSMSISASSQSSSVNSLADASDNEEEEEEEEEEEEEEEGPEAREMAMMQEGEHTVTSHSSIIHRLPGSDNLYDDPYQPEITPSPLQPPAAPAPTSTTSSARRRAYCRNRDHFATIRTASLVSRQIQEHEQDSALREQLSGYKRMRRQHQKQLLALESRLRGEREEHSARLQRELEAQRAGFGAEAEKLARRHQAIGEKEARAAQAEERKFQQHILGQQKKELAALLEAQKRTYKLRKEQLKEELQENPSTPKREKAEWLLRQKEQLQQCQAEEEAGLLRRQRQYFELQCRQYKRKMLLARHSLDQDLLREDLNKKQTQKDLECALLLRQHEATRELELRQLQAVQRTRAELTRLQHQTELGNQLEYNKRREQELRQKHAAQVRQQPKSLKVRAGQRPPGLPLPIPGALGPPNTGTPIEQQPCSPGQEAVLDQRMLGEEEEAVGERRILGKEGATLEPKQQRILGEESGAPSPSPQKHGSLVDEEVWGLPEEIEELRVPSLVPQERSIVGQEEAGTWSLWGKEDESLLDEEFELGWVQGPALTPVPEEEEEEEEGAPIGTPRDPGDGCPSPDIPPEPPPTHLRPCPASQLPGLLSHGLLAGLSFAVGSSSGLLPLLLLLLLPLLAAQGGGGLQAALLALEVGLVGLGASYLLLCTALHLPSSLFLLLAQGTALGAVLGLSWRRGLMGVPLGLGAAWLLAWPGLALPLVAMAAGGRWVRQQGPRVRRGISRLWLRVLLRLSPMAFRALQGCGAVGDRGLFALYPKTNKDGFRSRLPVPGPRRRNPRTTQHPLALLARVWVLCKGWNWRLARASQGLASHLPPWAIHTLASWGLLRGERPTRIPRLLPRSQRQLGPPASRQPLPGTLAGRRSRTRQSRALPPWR
Chain of ZC2/TNIK (Q9UKE5 whole entry): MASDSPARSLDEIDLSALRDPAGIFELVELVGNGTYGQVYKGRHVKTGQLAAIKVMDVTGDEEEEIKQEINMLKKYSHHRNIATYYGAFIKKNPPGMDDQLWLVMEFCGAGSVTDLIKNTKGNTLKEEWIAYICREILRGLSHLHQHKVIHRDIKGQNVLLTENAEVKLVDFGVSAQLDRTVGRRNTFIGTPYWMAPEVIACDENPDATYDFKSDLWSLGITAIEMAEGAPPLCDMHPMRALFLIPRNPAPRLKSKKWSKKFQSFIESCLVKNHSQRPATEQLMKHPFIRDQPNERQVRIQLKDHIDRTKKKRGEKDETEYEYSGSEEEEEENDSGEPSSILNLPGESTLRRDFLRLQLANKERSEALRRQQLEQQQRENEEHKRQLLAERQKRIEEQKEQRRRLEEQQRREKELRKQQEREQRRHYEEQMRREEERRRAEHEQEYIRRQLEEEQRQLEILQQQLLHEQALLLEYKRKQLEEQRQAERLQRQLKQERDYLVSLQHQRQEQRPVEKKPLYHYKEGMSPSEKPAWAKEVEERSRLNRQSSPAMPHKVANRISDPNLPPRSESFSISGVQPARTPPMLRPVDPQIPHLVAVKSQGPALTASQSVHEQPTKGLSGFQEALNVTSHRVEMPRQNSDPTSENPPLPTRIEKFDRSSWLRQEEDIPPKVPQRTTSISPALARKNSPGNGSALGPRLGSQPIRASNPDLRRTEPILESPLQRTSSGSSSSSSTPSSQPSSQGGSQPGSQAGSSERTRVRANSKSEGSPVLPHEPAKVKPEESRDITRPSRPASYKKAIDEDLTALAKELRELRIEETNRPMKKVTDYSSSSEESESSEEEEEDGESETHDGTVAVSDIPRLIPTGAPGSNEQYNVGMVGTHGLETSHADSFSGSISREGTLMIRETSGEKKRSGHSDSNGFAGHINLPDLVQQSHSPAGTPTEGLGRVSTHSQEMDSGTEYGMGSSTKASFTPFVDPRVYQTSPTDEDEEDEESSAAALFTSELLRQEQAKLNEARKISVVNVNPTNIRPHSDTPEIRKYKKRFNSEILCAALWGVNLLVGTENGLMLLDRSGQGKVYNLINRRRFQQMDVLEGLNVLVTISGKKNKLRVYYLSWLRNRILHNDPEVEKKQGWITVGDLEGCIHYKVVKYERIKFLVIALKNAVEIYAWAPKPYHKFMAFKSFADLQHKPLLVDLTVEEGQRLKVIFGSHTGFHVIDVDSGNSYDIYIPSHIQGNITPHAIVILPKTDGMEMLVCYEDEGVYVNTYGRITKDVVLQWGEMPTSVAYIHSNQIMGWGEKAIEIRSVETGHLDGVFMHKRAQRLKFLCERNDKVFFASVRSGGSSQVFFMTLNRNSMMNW
Chain of p70S6Kb (Q9UBS0 whole entry): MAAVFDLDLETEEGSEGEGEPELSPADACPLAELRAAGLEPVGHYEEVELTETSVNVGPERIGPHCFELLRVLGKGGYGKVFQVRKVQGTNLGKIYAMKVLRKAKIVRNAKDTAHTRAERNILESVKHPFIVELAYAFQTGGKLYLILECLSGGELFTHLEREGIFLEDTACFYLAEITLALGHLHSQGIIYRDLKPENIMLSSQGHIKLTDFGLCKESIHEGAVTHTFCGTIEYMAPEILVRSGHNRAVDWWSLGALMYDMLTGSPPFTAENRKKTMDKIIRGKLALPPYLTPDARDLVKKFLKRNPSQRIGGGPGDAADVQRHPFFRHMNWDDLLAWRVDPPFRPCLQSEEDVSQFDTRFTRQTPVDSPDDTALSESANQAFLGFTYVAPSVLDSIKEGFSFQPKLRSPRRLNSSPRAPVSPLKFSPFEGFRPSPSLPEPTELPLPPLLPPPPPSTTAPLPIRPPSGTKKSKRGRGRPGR
Chain of CDC2 (P06493 whole entry): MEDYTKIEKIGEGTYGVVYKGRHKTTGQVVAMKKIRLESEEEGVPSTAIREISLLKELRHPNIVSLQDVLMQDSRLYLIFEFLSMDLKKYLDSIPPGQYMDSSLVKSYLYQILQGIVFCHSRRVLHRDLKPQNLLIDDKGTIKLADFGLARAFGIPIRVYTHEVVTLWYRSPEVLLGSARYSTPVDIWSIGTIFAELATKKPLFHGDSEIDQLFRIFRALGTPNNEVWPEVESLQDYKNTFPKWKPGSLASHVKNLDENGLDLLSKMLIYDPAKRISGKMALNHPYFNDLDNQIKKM

`Cn1cc(-c2c[nH]c3ncnc(N4CCOCC4)c23)cc1C#N` [Example 217, 1-methyl-4-[4-(morpholin-4-yl)-7H-pyrrolo[2,3-d]pyrimidin-5-yl]-1H-pyrrole-2-carbonitrile] was tested, and the inhibition at 0.1 µM (MAP2K6; MAP2K6, 0.1 μM) was 11.3%, the inhibition at 1 µM (MAP2K6; MAP2K6, 1 μM) was -0.1% and the inhibition at 0.1 µM (SLK; SLK, 0.1 μM) was 22.5%. For the same molecule, the inhibition at 1 µM (SLK; SLK, 1 μM) was 39.1%, the inhibition at 0.1 µM (TAO2; TAO2, 0.1 μM) was -20.2% and the inhibition at 1 µM (TAO2; TAO2, 1 μM) was -18.4%. For the same molecule, the percent inhibition (IKKe, TBK1; 0.1 μM) was 2.3%, the percent inhibition (IKKe, TBK1; 1 μM) was 13.3% and the inhibition at 0.1 µM (NEK7; NEK7, 0.1 μM) was -9%. The inhibition at 1 µM (NEK7; NEK7, 1 μM) was -2.3%, the percent inhibition (JNK1, JNK2, JNK3; 0.1 μM) was −18.2% and the percent inhibition (JNK1, JNK2, JNK3; 1 μM) was −6.4%. The inhibition at 0.1 µM (smMLCK; smMLCK, 0.1 μM) was 1.7%, the inhibition at 1 µM (smMLCK; smMLCK, 1 μM) was 3.5% and the inhibition at 0.1 µM (KHS1; KHS1, 0.1 μM) was 10.7%. It also gave an inhibition at 1 µM (KHS1; KHS1, 1 μM) of 7.6%, an inhibition at 0.1 µM (SYK; SYK, 0.1 μM) of -2% and an inhibition at 1 µM (SYK; SYK, 1 μM) of -5.1%. The inhibition at 0.1 µM (PKD2; PKD2, 0.1 μM) was 5.8%, the inhibition at 1 µM (PKD2; PKD2, 1 μM) was 4.5% and the inhibition at 0.1 µM (ZAK; ZAK, 0.1 μM) was -2.9%. The inhibition at 1 µM (ZAK; ZAK, 1 μM) was -1.2%, the inhibition at 0.1 µM (LRRK2) was 88.4% and the inhibition at 0.1 µM (LATS2; LATS2, 0.1 μM) was 5.8%. The inhibition at 1 µM (LATS2; LATS2, 1 μM) was -23.7%, the inhibition at 0.1 µM (MAP2K3; MAP2K3, 0.1 μM) was 2.5% and the inhibition at 1 µM (MAP2K3; MAP2K3, 1 μM) was 3.3%. It also gave an inhibition at 0.1 µM (CDC2; CDC2, 0.1 μM) of 28.7%, an inhibition at 1 µM (CDC2; CDC2, 1 μM) of 24.4% and an inhibition at 0.1 µM (MAP3K5; MAP3K5, 0.1 μM) of 7%. The inhibition at 1 µM (MAP3K5; MAP3K5, 1 μM) was 44.5%, the inhibition at 0.1 µM (MARK3; MARK3, 0.1 μM) was 16.2% and the inhibition at 1 µM (MARK3; MARK3, 1 μM) was 18.4%. For the same molecule, the inhibition at 0.1 µM (IKKe; IKKe, 0.1 μM) was -3%, the inhibition at 1 µM (IKKe; IKKe, 1 μM) was 20.4% and the inhibition at 0.1 µM (MSK1 domain1; MSK1 domain1, 0.1 μM) was -12.1%. The inhibition at 1 µM (MSK1 domain1; MSK1 domain1, 1 μM) was -2.2%, the inhibition at 0.1 µM (JAK1 domain2; JAK1 domain2, 0.1 μM) was 7.4% and the inhibition at 1 µM (JAK1 domain2; JAK1 domain2, 1 μM) was 10.1%. For the same molecule, the inhibition at 0.1 µM (FYN; FYN, 0.1 μM) was -2.1%, the inhibition at 1 µM (FYN; FYN, 1 μM) was -6.8% and the inhibition at 0.1 µM (ZC2/TNIK; ZC2/TNIK, 0.1 μM) was -10.7%. The inhibition at 1 µM (ZC2/TNIK; ZC2/TNIK, 1 μM) was 3.9%, the inhibition at 0.1 µM (LATS1; LATS1, 0.1 μM) was -3.9% and the inhibition at 1 µM (LATS1; LATS1, 1 μM) was 1.9%. It also gave an inhibition at 0.1 µM (p70S6Kb; p70S6Kb, 0.1 μM) of -2.2%, an inhibition at 1 µM (p70S6Kb; p70S6Kb, 1 μM) of -16.7% and a percent inhibition (p70S6K, p70S6Kb; 0.1 μM) of 5.5%. The percent inhibition (p70S6K, p70S6Kb; 1 μM) was 5.4%, the inhibition at 0.1 µM (IKKb; IKKb, 0.1 μM) was 7.1% and the inhibition at 1 µM (IKKb; IKKb, 1 μM) was 6.5%. For the same molecule, the inhibition at 0.1 µM (JAK3 domain2; JAK3 domain2, 0.1 μM) was -7.8%, the inhibition at 1 µM (JAK3 domain2; JAK3 domain2, 1 μM) was 4.9% and the inhibition at 0.1 µM (FAK; FAK, 0.1 μM) was 8.1%. The inhibition at 1 µM (FAK; FAK, 1 μM) was 17.4%, the inhibition at 0.1 µM (eEF2K; eEF2K, 0.1 μM) was -12.1% and the inhibition at 1 µM (eEF2K; eEF2K, 1 μM) was 2.2%. It also gave an inhibition at 0.1 µM (FGR; FGR, 0.1 μM) of -1.2%, an inhibition at 1 µM (FGR; FGR, 1 μM) of -0.5% and an inhibition at 0.1 µM (MAST3; MAST3, 0.1 μM) of -11.7%. It also gave an inhibition at 1 µM (MAST3; MAST3, 1 μM) of 0.4%, an inhibition at 0.1 µM (PKR; PKR, 0.1 μM) of -7.7% and an inhibition at 1 µM (PKR; PKR, 1 μM) of 1.8%. For the same molecule, the inhibition at 0.1 µM (TLK2; TLK2, 0.1 μM) was 11.1%, the inhibition at 1 µM (TLK2; TLK2, 1 μM) was 16% and the inhibition at 0.1 µM (DGKA; DGKA, 0.1 μM) was -2.8%. For the same molecule, the inhibition at 1 µM (DGKA; DGKA, 1 μM) was 4.7%, the percent inhibition (ABL, ARG; 0.1 μM) was 4.6% and the percent inhibition (ABL, ARG; 1 μM) was −1.6%.
`N#Cc1cccc(-c2c[nH]c3ncnc(N4CCOCC4)c23)c1` [Example 4, 3-[4-(Morpholin-4-yl)-7H-pyrrolo[2,3-d]pyrimidin-5-yl]benzonitrile] showed an inhibition at 0.1 µM (MAP2K6) of -15.1%, an inhibition at 1 µM (MAP2K6) of 13.5% and an inhibition at 0.1 µM (SLK) of 10.5%. It also gave an inhibition at 1 µM (SLK) of 60.7%, an inhibition at 0.1 µM (TAO2) of -12.7% and an inhibition at 1 µM (TAO2) of -2.5%. The percent inhibition (IKKe, TBK1; 0.1 μM) was −6.7%, the percent inhibition (IKKe, TBK1; 1 μM) was 18.8% and the inhibition at 0.1 µM (NEK7) was 2.2%. The inhibition at 1 µM (NEK7) was 7.3%, the percent inhibition (JNK1, JNK2, JNK3; 0.1 μM) was −5.3% and the percent inhibition (JNK1, JNK2, JNK3; 1 μM) was 5.4%. It also gave an inhibition at 0.1 µM (smMLCK) of -21.6%, an inhibition at 1 µM (smMLCK) of 16.2% and an inhibition at 0.1 µM (KHS1) of -25.9%. It also gave an inhibition at 1 µM (KHS1) of 12.9%, an inhibition at 0.1 µM (SYK) of -8.3% and an inhibition at 1 µM (SYK) of 7.2%. The inhibition at 0.1 µM (PKD2) was 0.7%, the inhibition at 1 µM (PKD2) was 9.4% and the inhibition at 0.1 µM (ZAK) was -20.5%. For the same molecule, the inhibition at 1 µM (ZAK) was -42.2%, the inhibition at 0.1 µM (LRRK2) was 79.9% and the inhibition at 1 µM (LRRK2; 1 μM) was 94.1%. The inhibition at 0.1 µM (LATS2) was -7.2%, the inhibition at 1 µM (LATS2) was 16.2% and the inhibition at 0.1 µM (MAP2K3) was -12.5%. For the same molecule, the inhibition at 1 µM (MAP2K3) was 6.2%, the inhibition at 0.1 µM (CDC2) was -6.7% and the inhibition at 1 µM (CDC2) was 12.9%. It also gave an inhibition at 0.1 µM (MAP3K5) of 3.3%, an inhibition at 1 µM (MAP3K5) of 21.3% and an inhibition at 0.1 µM (MARK3) of -2.6%. It also gave an inhibition at 1 µM (MARK3) of 23.7%, an inhibition at 0.1 µM (IKKe) of -7% and an inhibition at 1 µM (IKKe) of 7.4%. It also gave an inhibition at 0.1 µM (MSK1 domain1) of 1%, an inhibition at 1 µM (MSK1 domain1) of -3.8% and an inhibition at 0.1 µM (JAK1 domain2) of -6.2%. The inhibition at 1 µM (JAK1 domain2) was 18.9%, the inhibition at 0.1 µM (FYN) was -1.9% and the inhibition at 1 µM (FYN) was -9.1%. The inhibition at 0.1 µM (ZC2/TNIK) was -7.9%, the inhibition at 1 µM (ZC2/TNIK) was 29.2% and the inhibition at 0.1 µM (LATS1) was -4.8%. It also gave an inhibition at 1 µM (LATS1) of 5.4%, an inhibition at 0.1 µM (p70S6Kb) of 11.4% and an inhibition at 1 µM (p70S6Kb) of 18.5%. It also gave a percent inhibition (p70S6K, p70S6Kb; 0.1 μM) of −10.5%, a percent inhibition (p70S6K, p70S6Kb; 1 μM) of −9.6% and an inhibition at 0.1 µM (IKKb) of -15.5%. For the same molecule, the inhibition at 1 µM (IKKb) was -15.8%, the inhibition at 0.1 µM (JAK3 domain2) was 6.9% and the inhibition at 1 µM (JAK3 domain2) was 6.8%. For the same molecule, the inhibition at 0.1 µM (FAK) was -8.9%, the inhibition at 1 µM (FAK) was 11.1% and the inhibition at 0.1 µM (eEF2K) was -27.1%. The inhibition at 1 µM (eEF2K) was 2.8%, the inhibition at 0.1 µM (FGR) was -10.8% and the inhibition at 1 µM (FGR) was 1.7%. The inhibition at 0.1 µM (MAST3) was 2.6%, the inhibition at 1 µM (MAST3) was 0.8% and the inhibition at 0.1 µM (PKR) was -3.3%. For the same molecule, the inhibition at 1 µM (PKR) was 7.2%, the inhibition at 0.1 µM (TLK2) was -8.4% and the inhibition at 1 µM (TLK2) was -9.4%. The inhibition at 0.1 µM (DGKA) was -15.9%, the inhibition at 1 µM (DGKA) was -8.7% and the percent inhibition (ABL, ARG; 0.1 μM) was −29.4%. For the same molecule, the percent inhibition (ABL, ARG; 1 μM) was −0.9%.
